# Laboratory results as given in ChEMBL document CHEMBL3885861, “Open TG-GATES”.
# Organism: Rattus norvegicus
# Assay: Open TG-GATES - Regimen: Single
# Format: toxicity, organism-based, Sprague-Dawley
# Parameters: regimen Single, gender Male, age 6 weeks
# Conditions: in vivo, po, 150 mg/kg, route gavage, dose level High; for APTT / Bas / Eos / Fbg / Hb / Ht / Lym / MCH / MCHC / MCV / Mono / Neu / PT / Plat / RBC / Ret / WBC: tissue Blood; for KIDNEY_L / KIDNEY_R / KIDNEY_TOTAL: tissue Kidney; for LIVER: tissue Liver; for A/G / ALP / ALT / AST / BUN / CRE / Ca / Cl / DBIL / GLC / IP / K / LDH / Na / PL / RALB / TBIL / TC / TG / TP / gamma-GTP: tissue Plasma
structure (smiles),measurement,setting,value
O=c1ccc2ccccc2o1 [COUMARIN],TERMINAL_BW,3 h,182 g
same,APTT,3 h,16 s
same,Bas,3 h,0%
same,Eos,3 h,0.6%
same,Fbg,3 h,201.2 mg/dL
same,Hb,3 h,13.9 g/dL
same,Ht,3 h,42.2%
same,Lym,3 h,73.6%
same,MCH,3 h,22.2 pg
same,MCHC,3 h,33%
same,MCV,3 h,67.3 fL
same,Mono,3 h,5%
same,Neu,3 h,20.8%
same,PT,3 h,12.6 s
same,Plat,3 h,131.8 x10_4/uL
same,RBC,3 h,627.6 x10_4/ul
same,Ret,3 h,9.9%
same,WBC,3 h,86 x10_2/uL
same,KIDNEY_L,3 h,0.8 g
same,KIDNEY_R,3 h,0.9 g
same,KIDNEY_TOTAL,3 h,1.7 g
same,LIVER,3 h,8.3 g
same,A/G,3 h,2.1
same,ALP,3 h,1017.8 IU/L
same,ALT,3 h,45.4 IU/L
same,AST,3 h,76.4 IU/L
same,BUN,3 h,11.4 mg/dL
same,CRE,3 h,0.4 mg/dL
same,Ca,3 h,10.7 mg/dL
same,Cl,3 h,100.6 meq/L
same,DBIL,3 h,0 mg/dL
same,GLC,3 h,220.8 mg/dL
same,IP,3 h,11.2 mg/dL
same,K,3 h,4.3 meq/L
same,LDH,3 h,175 IU/L
same,Na,3 h,137.8 meq/L
same,PL,3 h,158.4 mg/dL
same,RALB,3 h,3.8 g/dL
same,TBIL,3 h,0.2 mg/dL
same,TC,3 h,89.6 mg/dL
same,TG,3 h,53 mg/dL
same,TP,3 h,5.7 g/dL
same,gamma-GTP,3 h,1.6 IU/L
same,TERMINAL_BW,6 h,176.6 g
same,APTT,6 h,16.5 s
same,Bas,6 h,0%
same,Eos,6 h,0.6%
same,Fbg,6 h,210.4 mg/dL
same,Hb,6 h,14.8 g/dL
same,Ht,6 h,44.4%
same,Lym,6 h,68.4%
same,MCH,6 h,21.4 pg
same,MCHC,6 h,33.2%
same,MCV,6 h,64.4 fL
same,Mono,6 h,7.4%
same,Neu,6 h,24.2%
same,PT,6 h,13 s
same,Plat,6 h,111.1 x10_4/uL
same,RBC,6 h,690.2 x10_4/ul
same,Ret,6 h,8.7%
same,WBC,6 h,61.8 x10_2/uL
same,KIDNEY_L,6 h,0.8 g
same,KIDNEY_R,6 h,0.8 g
same,KIDNEY_TOTAL,6 h,1.6 g
same,LIVER,6 h,7.3 g
same,A/G,6 h,2.2
same,ALP,6 h,951.6 IU/L
same,ALT,6 h,45.2 IU/L
same,AST,6 h,77.6 IU/L
same,BUN,6 h,16 mg/dL
same,CRE,6 h,0.5 mg/dL
same,Ca,6 h,10.3 mg/dL
same,Cl,6 h,102.4 meq/L
same,DBIL,6 h,0.008 mg/dL
same,GLC,6 h,190.6 mg/dL
same,IP,6 h,10.1 mg/dL
same,K,6 h,4.5 meq/L
same,LDH,6 h,203.2 IU/L
same,Na,6 h,138 meq/L
same,PL,6 h,144.2 mg/dL
same,RALB,6 h,4 g/dL
same,TBIL,6 h,0.2 mg/dL
same,TC,6 h,94.4 mg/dL
same,TG,6 h,23.4 mg/dL
same,TP,6 h,5.9 g/dL
same,gamma-GTP,6 h,1.4 IU/L
same,TERMINAL_BW,9 h,175.4 g
same,APTT,9 h,16.4 s
same,Bas,9 h,0%
same,Eos,9 h,1%
same,Fbg,9 h,196.4 mg/dL
same,Hb,9 h,14.5 g/dL
same,Ht,9 h,43.8%
same,Lym,9 h,76.8%
same,MCH,9 h,21.6 pg
same,MCHC,9 h,33.1%
same,MCV,9 h,65.2 fL
same,Mono,9 h,8%
same,Neu,9 h,14.4%
same,PT,9 h,13.2 s
same,Plat,9 h,100.6 x10_4/uL
same,RBC,9 h,672.6 x10_4/ul
same,Ret,9 h,9.7%
same,WBC,9 h,79.6 x10_2/uL
same,KIDNEY_L,9 h,0.8 g
same,KIDNEY_R,9 h,0.8 g
same,KIDNEY_TOTAL,9 h,1.6 g
same,LIVER,9 h,7.3 g
same,A/G,9 h,2.1
same,ALP,9 h,950 IU/L
same,ALT,9 h,37.4 IU/L
same,AST,9 h,75.8 IU/L
same,BUN,9 h,15.2 mg/dL
same,CRE,9 h,0.5 mg/dL
same,Ca,9 h,10.6 mg/dL
same,Cl,9 h,102.4 meq/L
same,DBIL,9 h,0.04 mg/dL
same,GLC,9 h,182.8 mg/dL
same,IP,9 h,9.8 mg/dL
same,K,9 h,4.4 meq/L
same,LDH,9 h,153.2 IU/L
same,Na,9 h,137.4 meq/L
same,PL,9 h,147.2 mg/dL
same,RALB,9 h,3.8 g/dL
same,TBIL,9 h,0.3 mg/dL
same,TC,9 h,93 mg/dL
same,TG,9 h,22.4 mg/dL
same,TP,9 h,5.6 g/dL
same,gamma-GTP,9 h,1.2 IU/L
same,TERMINAL_BW,24 h,177.1 g
same,APTT,24 h,16 s
same,Bas,24 h,0%
same,Eos,24 h,1.2%
same,Fbg,24 h,181.2 mg/dL
same,Hb,24 h,14 g/dL
same,Ht,24 h,42%
same,Lym,24 h,77.2%
same,MCH,24 h,21.6 pg
same,MCHC,24 h,33.2%
same,MCV,24 h,65.1 fL
same,Mono,24 h,9.6%
same,Neu,24 h,12.6%
same,PT,24 h,12.9 s
same,Plat,24 h,118.7 x10_4/uL
same,RBC,24 h,645.8 x10_4/ul
same,Ret,24 h,7.5%
same,WBC,24 h,85.4 x10_2/uL
same,KIDNEY_L,24 h,0.8 g
same,KIDNEY_R,24 h,0.9 g
same,KIDNEY_TOTAL,24 h,1.7 g
same,LIVER,24 h,8.5 g
same,A/G,24 h,2.1
same,ALP,24 h,1067.4 IU/L
same,ALT,24 h,40.2 IU/L
same,AST,24 h,85.8 IU/L
same,BUN,24 h,15.6 mg/dL
same,CRE,24 h,0.6 mg/dL
same,Ca,24 h,11 mg/dL
same,Cl,24 h,105.2 meq/L
same,DBIL,24 h,0.016 mg/dL
same,GLC,24 h,179 mg/dL
same,IP,24 h,8.6 mg/dL
same,K,24 h,5.3 meq/L
same,LDH,24 h,202.8 IU/L
same,Na,24 h,137.8 meq/L
same,PL,24 h,121.2 mg/dL
same,RALB,24 h,3.7 g/dL
same,TBIL,24 h,0.4 mg/dL
same,TC,24 h,68.2 mg/dL
same,TG,24 h,42.6 mg/dL
same,TP,24 h,5.5 g/dL
same,gamma-GTP,24 h,1.2 IU/L
